Assay results: paper PMC9786284, “Synthesis and Antiproliferative Effect of Halogenated Coumarin Derivatives” (Molecules, 2022)

What was measured:
Type in all cases: cell-based
Nthy-ori-3-1 cells = experiment: Cell cycle analysis by flow cytometry (PI/RNase staining); details: control cells (Nthy-ori-3-1); 20 µM, 24 h
TPC-1 cells [1] = experiment: Annexin V-FITC/PI apoptosis assay by flow cytometry; details: for total apoptotic cells: 20 μM, 24 h, untreated cells 10%; for viability at 20 µM: Homo sapiens, TPC1, 24 h, untreated cells 87%, read-out: viable cells
Method: To determine whether the two studied coumarins 2k and 2h, induce cell death through apoptosis or necrosis, we performed double staining with fluorescent Annexin V-FITC/propidium iodide (PI) apoptosis detection kit in TPC-1 and Nthy-ori-3-1 as control cells. This assay is based on the ability of Annexin to recognize phosphatidylserine (PS), a membrane phospholipid exposed on the cell surface of apoptotic cells, while PI is able to bind the DNA of necrotic cells. Thanks to this combination, […] cell populations are obtained: cells negative for Annexin V-FITC and PI indicate live cells, Annexin V-FITC-positive/PI-negative and Annexin V-FITC-positive/PI-positive indicate early and late apoptotic cells, while cells negative for Annexin V-FITC and PI-positive are necrotic.
To investigate cell death induced by coumarins treatment, a flow cytometric analysis using the cell apoptosis kit Annexin V/propidium iodide (PI) double staining uptake (Life Technologies, Monza, Italy) was employed. Control and PTC-derived cells, at the density of 5 × 10^4 cells/mL, were seeded in 6-well plates (Corning) with complete DMEM/F12. First, the cells were treated with 20 µM of coumarins for 24 h. Cells were washed once with PBS 1X and stained according to the kit’s protocol. Stained cells were then analyzed by flow cytometry, measuring the fluorescence emission at 530 and 620 nm using a 488 nm excitation laser (MoFloAstrios EQ, Beckman Coulter). Cell apoptosis was analyzed using Software Summit Version 6.3.1.1, Beckman Coulter.

TPC-1 cells [2] = experiment: Cell cycle analysis by flow cytometry (PI/RNase staining); details: 20 µM, 24 h, compared with untreated cells
Method: Among the potential mechanisms involved in the treatment of cancer, there is the arrest of the cell cycle. To detect whether the cytotoxicity of coumarins 2k and 2h resulted from cell cycle progression, the effects on the cell cycle of TPC-1 cells were analyzed by flow cytometry after labeling with PI (propidium iodide)/RNase Staining Buffer detection kit. […] According to apoptosis results, the cell cycle arrest could be responsible for the cytotoxicity in cancer cells. In the present study, it was observed that coumarin 2k determined cell arrest of TPC-1 cells in the G2/M phase, indicating the apoptotic mode of cell death and inhibition of DNA synthesis (S phase reduction). This finding is consistent with previous investigations reporting that coumarins able to induce cytotoxicity by inducing G2/M and S phases arrest in different cancer cell lines.
The cells were seeded (5 × 10^4 cells/mL) in six-well plates (Corning, Tewksbury, MA, USA). After 24 h, they were treated with coumarins (20 µM) for 24 h. Cell cycle analysis was performed by using the Invitrogen™ FxCycle™ PI/RNase Staining Solution (according to the manufacturer’s instructions, Thermo Fisher Scientific, Waltham, MA, USA), and then the DNA content was evaluated by flow cytometry (MoFloAstrios EQ, Beckman Coulter, Brea, CA, USA). The analysis of cell cycle phase distribution was accomplished via Kaluza Flow Cytometry Analysis Software (Software Version 1.2, Beckman Coulter) by setting 3 gates in each single parameter histogram: G0/G1, S, and G2/M.

Nthy-ori3-1 cells = experiment: Intracellular reduced and oxidized glutathione (GSH/GSSG) by HPLC-ECD; details: 20 µM, 24 h
Method: (§1) Redox perturbation was further investigated by measuring intracellular antioxidant species. In Nthy-ori3-1 cells, coumarin 2k at 20 µM improved the GSH concentration measured as GSH/GSSG ratio (p < 0.001), leading to values close to 200% with respect to the untreated cells (100%), while coumarin 2h increased the level of GSH but with less evidence (about 40% more than the untreated control cells, p < 0.01) (Figure 4). […] The Keap1/Nrf2/ARE system is a mechanism that plays a key role in the pathogenesis and progression of several diseases. It is a central defensive mechanism against oxidative stress.
(§2) Reduced glutathione (GSH) and oxidized glutathione (GSSG) levels were determined with high-performance liquid chromatography coupled with an electrochemical detector (HPLC-ECD), as described in previous studies. In detail, Nthy-ori3-1 and TPC-1 cells were seeded in 6-well plates at the density of 1 × 10^5 cells/2 mL and incubated for 24 h. Cells were then treated with 2k and 2h (20 µM) for 24 h. After the incubation, cells were scraped and extracted with 150 µL of 10% meta-phosphoric acid and 150 µL of 0.05% trifluoroacetic acid (TFA) (Merck, Milan, Italy) solution. After centrifugation, 10 µL of supernatant was collected for protein determination, and the remaining part was injected into the HPLC system. GSH and GSSG amounts were measured using an HPLC (Agilent 1260 infinity, Agilent Technologies, Palo Alto, CA, USA) equipped with an electrochemical detector (DECADE II Antec, Leyden, The Netherlands) and an Agilent interface 35900E. A calibration curve was created using standards of GSH and GSSG (Merck, Milan, Italy), injected with different concentrations. Data were collected and expressed as a percentage of the control cells (100%) of the ratio between GSH and GSSG normalized using µg of total proteins.

TPC-1 cells [3] = experiment: as above; details: 20 µM, 24 h, untreated cells 100%
Method: as §1, §2

SMILES	effect on the cell cycle (Nthy-ori-3-1 cells)	total apoptotic cells (TPC-1 cells [1]) [%]	viability at 20 µM (TPC-1 cells [1]) [%]	effect on G2/M phase cell population (TPC-1 cells [2])	increase in level of GSH over untreated control cells (Nthy-ori3-1 cells; more than the untreated control)	GSH/GSSG ratio, percentage of untreated cells (TPC-1 cells [3])	effect on S phase cell population (TPC-1 cells [2])	GSH/GSSG ratio, percentage of untreated cells (Nthy-ori3-1 cells; untreated cells 100%)
N#Cc1cc2cc(Br)cc(Br)c2oc1=O [2h, 6,8-dibromo-2-oxo-2H-chromene-3-carbonitrile]	No effect on the cell cycle	18	77.7	same trend	about 40%	up to 500%	–	–
N#Cc1cc2cc(I)cc(I)c2oc1=O [2k, 6,8-diiodo-2-oxo-2H-chromene-3-carbonitrile]	No effect on the cell cycle	34	62	increase in TPC-1 cells in the G2/M phase	–	about 200%	decreases the cell population in the S phase	about 200%
